# Data as given in patent US11440916B2, “Selective A2A receptor antagonist” (InxMed (Nanjing) Co., Ltd., priority 2018, dated 2022).
# “Also recorded” adds a separate entry of the source. Where two headings read alike, the source gives them in different places.
# What was measured:
# [1] = Oral bioavailability, AUC, half-life, plasma, brain and liver concentration in mice at 2 mg/kg; assay type: in vivo; details: for AUC(0-t) / half-life / bioavailability: plasma; for Plasma concentration 4 and 6 hours after oral administration: time point not stated; for bioavailability: read-out: Absolute bioavailability (oral)
# Protocol: HZ10126 and other test compounds were each administered to mice at a dose of 2 mg/kg, and the bioavailability, AUC, plasma concentration, level of brain penetration (i.e. brain concentration) and liver concentration after the oral administration were measured and shown in Table 1. The measurement methods are well known to a person skilled in the art.
# [2] = reference [2]; cited from earlier work
# A2A receptor = A2A receptor (Homo sapiens, UniProt P29274); assay: biochemical
# Protocol: The mixture in the Opti-plate was transferred to the [sequence]-96 GF/B filter plate, which was then washed 9 times with Washing Buffer (500 μl/well), and incubated at 55° C. for 10 min. […] A series of concentrations were established for each compound and the CPM values were plotted versus the concentrations. IC50 values were calculated from the curve obtained.
# [3] = cited from earlier work
# B16-F10 cells = assay: Mouse melanoma lung metastasis model, oral HZ10126; assay type: in vivo, mice
# Protocol: 4.1 Establishment of a Mouse Melanoma Model (6×10^4 Cells/Mouse)
# 5-week old C58BL/6N mice, half male and half female, were divided into 4 groups, with 10 mice per group. B16-F10 cells were digested and centrifuged, re-suspended in physiological saline and washed once. The cells were counted and adjusted to a cell density of 30×10^4 cells/ml in a volume of 12 ml. 200 μl of the cell suspension was injected into the tail vain of each mouse (Day 1), and the body weight of mice was recorded once every 3 days. On Day 18, the mice were all sacrificed, lungs were removed, and metastasis tumors were counted and weighed. Livers, kidneys and spleens were taken for HE staining to evaluate the toxicity of the drug. The lungs were subjected to immunohistochemistry and stained for CD11b, F4/80 and CD8.
# Test drug: HZ10126. 2 mg HZ10126 was dissolved in 80 μl DMSO first, and the resultant solution, while being vortexed, was added dropwise to 10 ml 50% PEG-400 to prepare a 0.2 mg/ml solution.
# For the test groups, the HZ10126 solution was intragastrically administered at a dose of 2 mg HZ10126/kg/day. For the control group, an equivalent volume of 50% PGE-400 was administered. From the day of injection of cells, the drug was administered once a day for 18 consecutive days.
# [4] = 2 mg/kg, 4 h after oral administration
# [5] = 2 mg/kg, 6 h after oral administration
# [6] = 2 mg/kg oral, 1 h post administration
SMILES,"AUC(0-t) ([1]; mouse, 2 mg/kg, oral) [ng·h/mL]","half-life ([1]; mouse, 2 mg/kg, oral) [h]",Plasma concentration 4 and 6 hours after oral administration ([1]; 2 mg/kg),"bioavailability ([1]; mouse, 2 mg/kg, oral) [%]",IC50 (A2A receptor) [nM],also measured
CCOC(=O)c1ccc(CCn2ncc3c2nc(N)n2nc(-c4ccco4)nc32)cc1 [HZ10328],233 ± 73.5,3.03,–,–,–,"Plasma concentration after oral administration [1, 4]: 4 h: 24.0 ± 8.02 ng/ml"
Nc1nc2c(cnn2CCc2ccc(CO)cc2)c2nc(-c3ccco3)nn12 [HZ10330],–,–,Not detected from 1 h after oral administration,0,–,"Absolute bioavailability (oral) ([1]; 2 mg/kg, oral): does not lead to detectable bioavailability"
Nc1nc2c(cnn2CCc2ccc(OCC(=O)O)cc2)c2nc(-c3ccco3)nn12 [HZ10136],7.42 ± 5.66,< 0.5,2.57 ± 0.10 ng/mL,0.73,1.1,"Liver concentration/Plasma concentration [1, 6]: 1 h post administration: 2.3; Brain penetration ([1]; 2 mg/kg, oral): No penetration"
Nc1nc2c(cnn2CCc2ccc(C(=O)O)cc2)c2nc(-c3ccco3)nn12 [HZ10126],371 ± 62.9,4 to 5,–,13.4,1.8,"Liver concentration/Plasma concentration [1, 6]: 7; Liver concentration/Plasma concentration ([1]; 2 mg/kg oral, 6 h post administration): 24; Plasma concentration after oral administration [1, 4]: 52.0 ± 7.03 ng/mL; Plasma concentration after oral administration [1, 5]: 28.9 ± 9.79 ng/mL; Brain penetration ([1]; 2 mg/kg, oral): no detectable brain concentration; also recorded: No penetration; Kp at 1 h ([1]; mouse, liver/plasma, 2 mg/kg oral, 1 h post administration): 7; Kp at 6 h ([1]; mouse, liver/plasma, 2 mg/kg oral, 6 h post administration): 24; Metastases on the lungs versus control group (B16-F10 cells; Day 18, 2 mg/kg/day intragastric, once a day for 18 days): obviously less than those in the control group; Inhibitory effect on tumor / tumor metastasis (B16-F10 cells; mice, oral 2 mg/kg/day): excellent effect of suppressing tumor metastasis; also recorded: excellent inhibitory effect"
Nc1nc2c(cnn2CCN2CCN(c3ccc(C(=O)O)cc3)CC2)c2nc(-c3ccco3)nn12 [HZ10168],93.9 ± 40.8,–,4.50 ± 2.53 ng/mL,–,1.2,–

# More lines, main results first:
"AUC(0-t) ([1]; mouse, 2 mg/kg, oral) [ng·h/mL]","half-life ([1]; mouse, 2 mg/kg, oral) [h]",Plasma concentration 4 and 6 hours after oral administration ([1]; 2 mg/kg),"bioavailability ([1]; mouse, 2 mg/kg, oral) [%]",IC50 (A2A receptor) [nM],SMILES,also measured
285 ± 113,–,–,–,2.5,"COCCOc1ccc(N2CCN(CCn3ncc4c3nc(N)n3nc(-c5ccco5)nc43)CC2)cc1 [Preladenant, reference compound]","Plasma concentration after oral administration [1, 5]: 6 h: 6.20 ± 7.27 ng/ml; half-life [2]: 2.1 h"
–,–,No significant meaningful concentration,~0,–,Nc1nc2c(cnn2CCc2ccccc2)c2nc(-c3ccco3)nn12 [SCH 58261],"half-life ([3]; after intravenous injection, reference [1]): *26.7 min; Oral bioavailability ([3]; after oral administration): barely any oral bioavailability; also recorded: barely has any bioavailability; Brain concentration ([3]; intraperitoneal injection): very low brain concentration; Plasma concentration ([3]; intraperitoneal injection): relatively high plasma concentration; Half-life in the blood ([3]; rats, after intravenous injection): 0.445 h"
